In PubChem BioAssay (NCI):
Where “and” joins values, the source holds several entries; their conditions need not be identical. Identical values can stand only once.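 Cultured in 96-well plates, cells were exposed to test compound for 48 hours across five concentrations. GI50 is the concentration that inhibits growth by half. TGI: concentration producing complete growth inhibition.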

Experiments:
Assay in all cases: NCI tumour cell line growth inhibition, 48 h
SR leukemia = test system: SR leukemia
HCC-2998 colon = test system: HCC-2998 colon
ACHN renal = test system: ACHN renal
BT-549 breast = test system: BT-549 breast
MCF7 breast = test system: MCF7 breast
KM12 colon = test system: KM12 colon
P388/ADR leukemia = test system: P388/ADR leukemia
DLD-1 colon = test system: DLD-1 colon
786-0 renal = test system: 786-0 renal
M14 melanoma = test system: M14 melanoma

SMILES	TGI (SR leukemia)	TGI (HCC-2998 colon)	TGI (ACHN renal) [µM]	TGI (BT-549 breast) [µM]	TGI (MCF7 breast)	TGI (KM12 colon)	TGI (786-0 renal) [µM]	TGI (M14 melanoma) [µM]	also measured
CN1CCN(c2ccc3nc(-c4ccc(OCCCN5C(=O)c6cccc7cccc(c67)C5=O)cc4)[nH]c3c2)CC1	5.94 µM	52.6 µM	11.2	6.13	–	–	–	–	GI50 (SR leukemia): 2.69 µM; GI50 (HCC-2998 colon): 20.6 µM; GI50 (ACHN renal): 5.34 µM; GI50 (BT-549 breast): 2.66 µM
Cc1c2cc[n+](C)cc2c(COC2OC(CO)C(O)C2O)c2c3ccccc3n(C)c12 (stereo unspecified)	–	> 100 µM	–	–	> 100 µM	> 100 µM	–	–	TGI (P388/ADR leukemia): > 100 µM; TGI (DLD-1 colon): > 100 µM
NC(=O)c1cc2ccccc2c(N=Nc2ccccc2)c1O	> 100 µM	–	–	> 100	–	> 100 µM	> 100	> 100	–
CC(=O)OC1CC2(O)C(CCC3(C)C(c4ccc(=O)oc4)CCC32O)C2(C)CCC(O)C=C12 (stereo unspecified)	–	0.357 µM and 0.195 µM	–	–	0.188 µM and 0.181 µM	0.213 µM and 0.676 µM	–	–	GI50 (HCC-2998 colon): 0.0437 µM; GI50 (MCF7 breast): 0.0173 µM; GI50 (KM12 colon): 0.033 µM and 0.0814 µM; GI50 (P388/ADR leukemia): 69.5 µM; TGI (P388/ADR leukemia): 261 µM; GI50 (DLD-1 colon): 0.0152 µM; TGI (DLD-1 colon): 0.107 µM and 0.0583 µM
CCC1=C(C)C2=NC1=CC1=NC(=C(CC)/C1=C/O)C=C1N=C3C(=C1C)C(=O)C(C(=O)OC)C3=C1NC(=C2)C(C)C1CCC(=O)OC (stereo unspecified)	> 100 µM	> 100 µM	> 100	> 100	> 100 µM	> 100 µM	> 100	> 100	–
COc1cccc2c1C(=O)c1c(O)c3c(c(O)c1C2=O)C[C@@](O)(C(C)=O)C[C@@H]3OC1CC(N)C(O)C(C)O1 (stereo partly specified)	0.239 µM and 0.908 µM	–	–	–	–	–	–	–	GI50 (KM12 colon): 0.0443 µM; GI50 (ACHN renal): < 0.011 µM; GI50 (M14 melanoma): 0.0487 µM; TGI (P388/ADR leukemia): 9.87 µM; GI50 (DLD-1 colon): > 5.01 µM; TGI (DLD-1 colon): 5.53 µM and 6.33 µM and > 5.01 µM; GI50 (BT-549 breast): 0.0482 µM
CC(=O)O[C@H]1C(=O)[C@]2(C)[C@@H](OC(=O)OCC(O)CO)C[C@H]3OC[C@@]3(OC(C)=O)[C@H]2[C@H](OC(=O)c2ccccc2)[C@]2(O)C[C@H](OC(=O)[C@H](O)[C@@H](NC(=O)c3ccccc3)c3ccccc3)C(C)=C1C2(C)C (stereo partly specified)	15.8 µM	< 0.01 µM	> 100	22.9	> 39.7 µM	–	–	–	–
CCP(=O)(CC)C(Cl)(Cl)C(=O)NC	> 100 µM	> 100 µM	> 100	–	–	–	–	> 100	–
O=c1c(-c2ccccc2)c[nH]c2cc([N+](=O)[O-])c(/C(Cl)=C/c3ccccc3)cc12	–	–	–	–	–	38.6 µM	–	–	TGI (P388/ADR leukemia): > 45.3 µM; TGI (DLD-1 colon): 13.6 µM
Cc1ccc(S(=O)(=O)OC2CN3CCC2CC3)cc1 (stereo unspecified)	> 100 µM	–	> 100	> 100	> 100 µM	> 100 µM	> 100	> 100	–
CC(C)(C)CC(C)(C)Cc1ccc(OCCOCC[N+](C)(C)Cc2ccccc2)cc1	–	3.02 µM	27	–	–	–	–	2.88	GI50 (HCC-2998 colon): 1.58 µM; GI50 (ACHN renal): 11.8 µM; GI50 (M14 melanoma): 1.42 µM
N#Cc1ccc(Nc2nc3nc[nH]c3c(=O)[nH]2)cc1	> 100 µM	> 100 µM	> 100	> 100	> 100 µM	> 100 µM	> 100	> 100	–
CCCCN(CCCC)CC(=O)c1ccc2cc(Cl)c3ccccc3c2c1	> 100 µM	76.8 µM	49	41.8	92.3 µM	> 100 µM	> 100	> 100	–
O=C(CCN1CCCC1)Nc1ccc2c(NCCCCc3ccccc3)c3ccccc3nc2c1	–	2.14 µM	2.59	–	–	2.74 µM	–	–	GI50 (HCC-2998 colon): 0.815 µM; GI50 (KM12 colon): 1.33 µM; GI50 (ACHN renal): 1.32 µM
CCOC(=O)c1c(NC(=S)NCc2ccccc2)sc2c1CCN(C)C2	–	–	> 100	> 100	> 100 µM	> 100 µM	–	> 100	–
